Measurements from ChEMBL document CHEMBL5465560, “Selectivity Literature for EUbOPEN Chemogenomic Library” (2024).

Experiments:
[1] = target: T1, Mitogen-activated protein kinase 13 (Homo sapiens) (UniProt O15264); test: Selectivity interaction (Kinase panel (KiNativ target engagement assay in Jurkat cells)) EUB0001635a MAPK13; type: cell-based; settings: Selectivity number of off-targets 0.0, Selectivity number of targets 233.0, Source Knowledge https://www.sciencedirect.com/science/article/pii/S2451945619300674?via%3Dihub, at 1 µM
T1 sequence (whole entry): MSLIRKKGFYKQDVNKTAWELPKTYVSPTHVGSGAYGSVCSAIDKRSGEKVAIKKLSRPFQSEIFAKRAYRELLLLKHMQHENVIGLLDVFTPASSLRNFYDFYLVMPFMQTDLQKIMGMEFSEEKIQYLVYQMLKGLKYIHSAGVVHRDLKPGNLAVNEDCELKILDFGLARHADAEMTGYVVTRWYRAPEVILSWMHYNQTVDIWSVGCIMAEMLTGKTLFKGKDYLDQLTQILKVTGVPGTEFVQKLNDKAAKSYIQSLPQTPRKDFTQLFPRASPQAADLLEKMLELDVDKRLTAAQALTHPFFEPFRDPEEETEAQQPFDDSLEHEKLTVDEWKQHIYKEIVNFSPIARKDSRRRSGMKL

[2] = target: Phosphatidylinositol 4-kinase beta (Homo sapiens, UniProt Q9UBF8); test: Selectivity interaction (KinomeScan (DiscoverX)) EUB0000229b PI4KB; settings: at 10 µM
Chain of Phosphatidylinositol 4-kinase beta (Q9UBF8 2-816 limits assumed): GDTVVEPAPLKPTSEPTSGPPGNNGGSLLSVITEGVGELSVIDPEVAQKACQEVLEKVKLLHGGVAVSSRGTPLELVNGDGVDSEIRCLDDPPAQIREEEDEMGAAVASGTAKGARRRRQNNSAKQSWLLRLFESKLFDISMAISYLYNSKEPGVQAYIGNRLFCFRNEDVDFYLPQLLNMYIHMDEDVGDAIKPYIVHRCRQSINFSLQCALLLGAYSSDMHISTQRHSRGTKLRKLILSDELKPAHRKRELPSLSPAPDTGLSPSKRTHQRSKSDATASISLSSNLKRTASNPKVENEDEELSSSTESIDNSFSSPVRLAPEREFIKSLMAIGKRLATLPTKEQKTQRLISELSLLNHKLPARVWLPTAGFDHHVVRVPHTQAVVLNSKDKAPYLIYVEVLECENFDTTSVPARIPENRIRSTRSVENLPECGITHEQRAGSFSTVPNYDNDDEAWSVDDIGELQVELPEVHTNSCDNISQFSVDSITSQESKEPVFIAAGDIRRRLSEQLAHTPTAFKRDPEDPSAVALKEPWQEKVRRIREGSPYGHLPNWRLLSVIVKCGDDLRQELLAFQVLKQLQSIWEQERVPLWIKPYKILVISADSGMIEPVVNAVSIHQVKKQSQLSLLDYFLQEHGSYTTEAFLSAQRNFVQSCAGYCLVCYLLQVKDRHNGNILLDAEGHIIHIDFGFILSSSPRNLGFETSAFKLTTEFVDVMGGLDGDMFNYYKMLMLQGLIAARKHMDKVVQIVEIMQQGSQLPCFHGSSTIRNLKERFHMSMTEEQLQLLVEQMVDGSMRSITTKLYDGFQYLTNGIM

[3] = target: T2, Protein kinase C epsilon type (Homo sapiens) (UniProt Q02156); test: Selectivity interaction (KinomeScan (DiscoverX)) EUB0000311b PRKCE; settings: at 1 µM
T2 sequence (whole entry): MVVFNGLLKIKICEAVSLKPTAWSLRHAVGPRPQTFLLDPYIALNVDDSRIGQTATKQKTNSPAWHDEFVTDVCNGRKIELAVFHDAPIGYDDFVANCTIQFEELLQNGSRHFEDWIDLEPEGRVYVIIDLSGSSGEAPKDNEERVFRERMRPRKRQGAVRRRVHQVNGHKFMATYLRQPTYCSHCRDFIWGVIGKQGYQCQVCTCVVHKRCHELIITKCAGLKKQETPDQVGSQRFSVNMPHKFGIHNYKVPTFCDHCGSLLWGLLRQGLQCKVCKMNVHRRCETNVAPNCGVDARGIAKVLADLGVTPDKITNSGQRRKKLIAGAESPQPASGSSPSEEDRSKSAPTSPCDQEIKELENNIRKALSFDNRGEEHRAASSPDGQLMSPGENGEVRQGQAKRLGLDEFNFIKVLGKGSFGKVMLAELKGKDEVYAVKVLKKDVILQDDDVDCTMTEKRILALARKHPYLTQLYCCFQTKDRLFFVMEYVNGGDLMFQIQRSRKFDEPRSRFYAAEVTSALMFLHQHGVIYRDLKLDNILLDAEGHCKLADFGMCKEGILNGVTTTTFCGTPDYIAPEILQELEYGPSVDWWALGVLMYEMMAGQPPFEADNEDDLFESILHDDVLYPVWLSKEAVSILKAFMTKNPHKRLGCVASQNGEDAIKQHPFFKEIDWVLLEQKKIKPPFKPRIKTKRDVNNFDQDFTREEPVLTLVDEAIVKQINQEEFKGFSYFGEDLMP

[4] = target: Serine/threonine-protein kinase SIK2 (Homo sapiens) (UniProt Q9H0K1); settings: at 10 µM
Chain of Serine/threonine-protein kinase SIK2 (Homo sapiens) (Q9H0K1 whole entry, looked up): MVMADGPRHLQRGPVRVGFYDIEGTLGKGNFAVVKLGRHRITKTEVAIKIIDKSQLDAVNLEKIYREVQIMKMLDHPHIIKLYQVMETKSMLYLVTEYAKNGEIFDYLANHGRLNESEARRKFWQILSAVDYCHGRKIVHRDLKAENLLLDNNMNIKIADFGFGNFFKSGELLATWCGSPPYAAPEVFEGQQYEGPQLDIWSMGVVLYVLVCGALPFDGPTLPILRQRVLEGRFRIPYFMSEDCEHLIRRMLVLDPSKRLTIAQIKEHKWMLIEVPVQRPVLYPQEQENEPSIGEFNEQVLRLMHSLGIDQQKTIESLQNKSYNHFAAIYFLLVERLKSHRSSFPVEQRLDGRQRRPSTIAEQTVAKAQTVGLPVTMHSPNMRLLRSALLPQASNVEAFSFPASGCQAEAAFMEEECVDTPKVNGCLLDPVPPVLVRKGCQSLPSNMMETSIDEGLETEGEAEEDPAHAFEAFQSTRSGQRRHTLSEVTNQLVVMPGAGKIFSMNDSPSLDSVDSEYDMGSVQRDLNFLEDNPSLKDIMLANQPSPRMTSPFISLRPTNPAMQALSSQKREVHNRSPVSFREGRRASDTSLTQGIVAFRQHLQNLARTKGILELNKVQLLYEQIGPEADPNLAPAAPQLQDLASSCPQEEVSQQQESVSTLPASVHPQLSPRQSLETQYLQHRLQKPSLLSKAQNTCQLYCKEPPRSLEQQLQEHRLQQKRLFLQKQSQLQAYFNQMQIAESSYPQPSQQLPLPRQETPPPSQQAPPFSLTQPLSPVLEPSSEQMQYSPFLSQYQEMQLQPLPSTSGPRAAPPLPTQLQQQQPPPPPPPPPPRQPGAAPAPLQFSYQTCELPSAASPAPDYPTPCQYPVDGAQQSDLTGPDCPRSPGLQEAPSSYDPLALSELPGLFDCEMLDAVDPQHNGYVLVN

[5] = target: Insulin-like growth factor 1 receptor (Homo sapiens, UniProt P08069); test: Selectivity interaction (KinomeScan (DiscoverX)) EUB0000695a IGF1R; settings: at 100 nM
Chain of Insulin-like growth factor 1 receptor (P08069 31-736 limits assumed): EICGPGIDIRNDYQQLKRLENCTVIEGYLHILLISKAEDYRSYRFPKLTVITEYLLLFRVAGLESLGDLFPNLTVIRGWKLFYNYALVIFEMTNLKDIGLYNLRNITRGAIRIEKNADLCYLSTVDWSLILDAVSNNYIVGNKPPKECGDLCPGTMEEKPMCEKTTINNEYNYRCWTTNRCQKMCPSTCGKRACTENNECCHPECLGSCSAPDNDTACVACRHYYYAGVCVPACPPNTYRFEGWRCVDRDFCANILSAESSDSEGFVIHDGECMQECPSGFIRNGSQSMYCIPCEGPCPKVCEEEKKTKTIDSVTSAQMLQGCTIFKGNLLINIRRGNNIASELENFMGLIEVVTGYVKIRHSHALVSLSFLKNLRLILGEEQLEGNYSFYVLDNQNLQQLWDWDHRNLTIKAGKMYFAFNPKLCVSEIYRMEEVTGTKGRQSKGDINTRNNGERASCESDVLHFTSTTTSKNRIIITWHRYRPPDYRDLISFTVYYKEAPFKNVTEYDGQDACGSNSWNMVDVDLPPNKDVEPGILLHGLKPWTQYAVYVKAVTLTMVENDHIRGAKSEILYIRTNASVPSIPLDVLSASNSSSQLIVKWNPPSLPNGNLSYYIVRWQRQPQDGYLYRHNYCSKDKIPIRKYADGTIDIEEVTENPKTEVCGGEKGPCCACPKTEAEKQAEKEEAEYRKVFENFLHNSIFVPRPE
Chain of Insulin-like growth factor 1 receptor (P08069 741-1367 limits assumed): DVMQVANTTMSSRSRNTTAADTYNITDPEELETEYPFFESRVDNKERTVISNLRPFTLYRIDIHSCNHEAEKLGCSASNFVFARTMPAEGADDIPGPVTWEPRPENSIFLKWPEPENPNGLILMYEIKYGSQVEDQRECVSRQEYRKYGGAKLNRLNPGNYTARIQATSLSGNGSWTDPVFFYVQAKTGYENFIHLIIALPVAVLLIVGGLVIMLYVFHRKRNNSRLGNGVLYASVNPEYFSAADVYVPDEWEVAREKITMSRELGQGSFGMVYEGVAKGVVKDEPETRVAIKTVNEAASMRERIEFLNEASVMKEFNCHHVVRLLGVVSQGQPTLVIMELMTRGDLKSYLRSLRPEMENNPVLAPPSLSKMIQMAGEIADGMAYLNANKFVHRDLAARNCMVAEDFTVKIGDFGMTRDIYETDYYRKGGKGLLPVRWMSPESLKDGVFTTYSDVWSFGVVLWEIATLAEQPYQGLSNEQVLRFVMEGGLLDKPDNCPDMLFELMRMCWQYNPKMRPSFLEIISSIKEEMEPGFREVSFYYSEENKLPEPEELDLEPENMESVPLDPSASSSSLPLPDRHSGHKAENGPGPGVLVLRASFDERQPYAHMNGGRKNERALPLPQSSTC

[6] = target: Receptor-interacting serine/threonine-protein kinase 2 (Homo sapiens, UniProt O43353); test: Selectivity interaction (KinomeScan (DiscoverX)) EUB0001079a RIPK2; settings: at 1 µM
Chain of Receptor-interacting serine/threonine-protein kinase 2 (O43353 whole entry): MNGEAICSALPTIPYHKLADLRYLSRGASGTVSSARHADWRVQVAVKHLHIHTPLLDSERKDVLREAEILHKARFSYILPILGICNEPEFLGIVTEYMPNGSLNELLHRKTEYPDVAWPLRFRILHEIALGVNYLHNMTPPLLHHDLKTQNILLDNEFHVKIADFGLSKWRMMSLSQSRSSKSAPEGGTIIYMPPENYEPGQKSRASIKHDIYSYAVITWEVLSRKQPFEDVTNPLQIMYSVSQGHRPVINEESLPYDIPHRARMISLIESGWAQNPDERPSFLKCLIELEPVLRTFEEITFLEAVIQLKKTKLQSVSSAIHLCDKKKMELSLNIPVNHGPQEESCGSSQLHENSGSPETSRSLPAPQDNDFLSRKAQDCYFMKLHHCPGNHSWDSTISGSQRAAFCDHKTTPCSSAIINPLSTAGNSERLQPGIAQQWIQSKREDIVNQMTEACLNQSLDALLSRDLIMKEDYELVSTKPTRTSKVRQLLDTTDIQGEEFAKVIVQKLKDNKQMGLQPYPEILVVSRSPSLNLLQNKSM

[7] = target: Ribosomal protein S6 kinase alpha-1 (Homo sapiens, UniProt Q15418); test: Selectivity interaction (Kinase panel (Z-LYTE Assay)) EUB0001632a RPS6KA1; settings: at 10 µM
Chain of Ribosomal protein S6 kinase alpha-1 (Q15418 whole entry): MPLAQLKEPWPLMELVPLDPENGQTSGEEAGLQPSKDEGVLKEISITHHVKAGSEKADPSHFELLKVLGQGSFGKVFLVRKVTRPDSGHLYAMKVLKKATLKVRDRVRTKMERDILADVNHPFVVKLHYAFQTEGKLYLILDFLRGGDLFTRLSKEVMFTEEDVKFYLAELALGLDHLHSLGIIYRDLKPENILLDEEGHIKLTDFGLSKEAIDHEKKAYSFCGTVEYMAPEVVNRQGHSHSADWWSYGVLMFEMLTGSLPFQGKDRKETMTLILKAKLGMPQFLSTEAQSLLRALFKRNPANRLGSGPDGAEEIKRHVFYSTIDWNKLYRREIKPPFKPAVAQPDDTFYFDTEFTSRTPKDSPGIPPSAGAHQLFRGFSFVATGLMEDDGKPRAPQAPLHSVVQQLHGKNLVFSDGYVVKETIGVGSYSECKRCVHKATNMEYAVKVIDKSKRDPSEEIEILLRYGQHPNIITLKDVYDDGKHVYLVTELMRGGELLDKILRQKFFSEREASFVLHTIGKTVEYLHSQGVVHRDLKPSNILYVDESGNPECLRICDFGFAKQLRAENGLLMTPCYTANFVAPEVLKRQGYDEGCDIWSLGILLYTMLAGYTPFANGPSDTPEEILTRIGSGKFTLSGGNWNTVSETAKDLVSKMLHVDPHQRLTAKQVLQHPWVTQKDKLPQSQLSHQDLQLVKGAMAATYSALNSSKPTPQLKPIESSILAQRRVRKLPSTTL

[8] = target: T3, Bromodomain-containing protein 1 (Homo sapiens) (UniProt O95696); test: Selectivity interaction (Bromodomain panel (DSF asssay)) EUB0000270b BRD1
T3 sequence (whole entry): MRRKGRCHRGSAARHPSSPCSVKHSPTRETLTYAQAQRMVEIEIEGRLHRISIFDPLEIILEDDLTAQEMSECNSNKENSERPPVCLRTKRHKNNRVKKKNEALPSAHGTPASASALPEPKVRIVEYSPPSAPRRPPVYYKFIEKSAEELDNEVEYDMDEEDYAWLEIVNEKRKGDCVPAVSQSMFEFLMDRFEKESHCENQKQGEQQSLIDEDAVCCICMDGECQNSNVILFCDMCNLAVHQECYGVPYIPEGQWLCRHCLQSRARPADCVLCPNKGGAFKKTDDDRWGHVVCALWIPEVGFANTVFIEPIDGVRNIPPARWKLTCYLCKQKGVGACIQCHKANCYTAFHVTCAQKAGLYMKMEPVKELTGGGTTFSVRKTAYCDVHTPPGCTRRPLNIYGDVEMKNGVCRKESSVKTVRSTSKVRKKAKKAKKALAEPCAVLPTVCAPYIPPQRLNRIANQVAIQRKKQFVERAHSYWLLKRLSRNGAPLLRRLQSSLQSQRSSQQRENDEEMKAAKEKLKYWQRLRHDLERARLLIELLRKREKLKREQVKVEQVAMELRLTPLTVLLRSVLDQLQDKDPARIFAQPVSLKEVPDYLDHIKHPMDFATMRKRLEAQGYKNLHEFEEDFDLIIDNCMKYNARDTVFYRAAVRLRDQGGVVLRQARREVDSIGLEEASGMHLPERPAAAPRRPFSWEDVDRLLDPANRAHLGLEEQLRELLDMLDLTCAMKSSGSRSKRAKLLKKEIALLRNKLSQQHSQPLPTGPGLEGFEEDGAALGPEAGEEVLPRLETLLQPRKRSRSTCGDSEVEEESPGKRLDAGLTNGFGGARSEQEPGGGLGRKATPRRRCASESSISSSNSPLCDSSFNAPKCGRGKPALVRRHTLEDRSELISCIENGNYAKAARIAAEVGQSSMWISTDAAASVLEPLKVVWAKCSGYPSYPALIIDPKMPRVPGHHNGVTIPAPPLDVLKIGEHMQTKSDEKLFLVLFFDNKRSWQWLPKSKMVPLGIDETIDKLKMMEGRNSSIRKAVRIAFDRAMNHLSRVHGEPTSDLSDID

[9] = target: Insulin receptor-related protein (Homo sapiens) (UniProt P14616); test: Selectivity interaction (KinomeScan (DiscoverX)) EUB0001049a INSRR; settings: at 1 µM
[10] = target: Serine/threonine-protein kinase PAK 6 (Homo sapiens) (UniProt Q9NQU5); test: Selectivity interaction (Ambit KINOMEscan and KiNATiv profiling in Jurkat cells) EUB0000090b PAK6; type: cell-based; settings: at 1 µM
Chain of Serine/threonine-protein kinase PAK 6 (Homo sapiens) (Q9NQU5 whole entry, looked up): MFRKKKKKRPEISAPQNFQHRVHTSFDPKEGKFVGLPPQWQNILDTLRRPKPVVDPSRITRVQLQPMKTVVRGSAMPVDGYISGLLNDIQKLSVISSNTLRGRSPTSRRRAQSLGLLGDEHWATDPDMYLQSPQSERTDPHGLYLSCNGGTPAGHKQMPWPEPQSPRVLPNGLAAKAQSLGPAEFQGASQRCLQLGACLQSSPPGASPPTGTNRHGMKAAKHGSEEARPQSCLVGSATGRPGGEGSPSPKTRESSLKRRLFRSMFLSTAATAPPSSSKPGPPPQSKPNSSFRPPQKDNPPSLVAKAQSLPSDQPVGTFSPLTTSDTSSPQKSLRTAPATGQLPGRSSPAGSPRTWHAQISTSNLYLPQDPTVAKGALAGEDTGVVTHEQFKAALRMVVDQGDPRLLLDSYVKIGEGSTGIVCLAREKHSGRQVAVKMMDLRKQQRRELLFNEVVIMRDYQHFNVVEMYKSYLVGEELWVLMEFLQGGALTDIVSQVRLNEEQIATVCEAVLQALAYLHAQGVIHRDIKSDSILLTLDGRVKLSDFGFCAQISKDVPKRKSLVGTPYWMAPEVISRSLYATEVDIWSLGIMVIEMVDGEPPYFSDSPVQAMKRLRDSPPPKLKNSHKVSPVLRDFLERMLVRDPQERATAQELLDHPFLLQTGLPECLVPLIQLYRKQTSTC

## C=CC(=O)Nc1ccc(C(=O)Nc2[nH]nc3c2CN(C(=O)N[C@H](CN(C)C)c2ccccc2)C3(C)C)cc1
[1]
  % of engagement: -10.3%

## COc1cc(N(C)c2ccnc3ccc(C(F)(F)F)cc23)cc(OC)c1OC
[2]
  % binding: 90%

## CCc1ccccc1C(=O)Nc1n[nH]c2c(C)c(F)c(C3C(C#N)=C(C)N(C)C(C)=C3C#N)cc12 [BAY-3827]
[3]
  % of control: 19%

## COCC(=O)NC/C=C/c1ccc2ncnc(Nc3ccc(Oc4ccc(C)nc4)c(C)c3)c2c1 [CP-724714]
[4]
  % of control: 84%

## Cc1cc(F)c(C(=O)Nc2cccc(-c3nncn3C(C)C)n2)cc1-n1cnc(C2CC2)c1
[5]
  % of control: 100%

## Nc1cnc(N2CCc3cc(S(=O)(=O)Nc4c(F)cc(Cl)cc4F)cc(N4CCCC4=O)c32)nc1 [TP-020n]
[6]
  % of control: 53%

## Cn1cc(-n2cnc3c(NCc4nc5cc(Cl)c(Cl)cc5[nH]4)nc(N4CCOCC4)nc32)cn1
[7]
  % of control: -6.37%

## Cc1cc(CN)cc(C)c1-c1ncn(C)c1-c1cncn1C
[8]
  dTM: -2.24 K

## COc1cc(Nc2nc(C)cc(-c3cnn4nc(OC)ccc34)n2)cc(C(F)(F)F)c1
[9]
  % of control: 86%

## CN(C)C/C=C/C(=O)Nc1ccc(C(=O)N2CCCC(Nc3ncc(Cl)c(-c4c[nH]c5ccccc45)n3)C2)cc1 (stereo not given)
[10]
  % of control: 87%
